≈ marks a conversion by molar mass, not a printed value. Calls of active or inactive are those of the source. No cut-off for these calls is given here.
How the values were obtained:
Format in all cases: functional
Bacillus subtilis [1] = experiment: Antibacterial activity against Bacillus subtilis at 75 ug/ml after 24 hrs by agar well diffusion method; settings: read-out: DIZ
Klebsiella pneumoniae [2] = experiment: Antibacterial activity against Klebsiella pneumoniae at 100 ug/ml after 24 hrs by agar well diffusion method; settings: read-out: DIZ
Klebsiella pneumoniae [3] = experiment: Antibacterial activity against Klebsiella pneumoniae at 75 ug/ml after 24 hrs by agar well diffusion method; settings: read-out: DIZ
Bacillus subtilis [4] = experiment: Antibacterial activity against Bacillus subtilis at 100 ug/ml after 24 hrs by agar well diffusion method; settings: read-out: DIZ
Staphylococcus aureus [5] = experiment: Antibacterial activity against Staphylococcus aureus at 100 ug/ml after 24 hrs by agar well diffusion method; settings: read-out: DIZ
Bacillus subtilis [6] = experiment: Antibacterial activity against Bacillus subtilis at 25 ug/ml after 24 hrs by agar well diffusion method; settings: read-out: DIZ
Escherichia coli [7] = experiment: Antibacterial activity against Escherichia coli at 75 ug/ml after 24 hrs by agar well diffusion method; settings: read-out: DIZ
Escherichia coli [8] = experiment: Antibacterial activity against Escherichia coli at 25 ug/ml after 24 hrs by agar well diffusion method; settings: read-out: DIZ
Klebsiella pneumoniae [9] = experiment: Antibacterial activity against Klebsiella pneumoniae incubated for overnight by microdilution method
Staphylococcus aureus [10] = experiment: Antibacterial activity against Staphylococcus aureus at 25 ug/ml after 24 hrs by agar well diffusion method; settings: read-out: DIZ
Bacillus subtilis [11] = experiment: Antibacterial activity against Bacillus subtilis incubated for overnight by microdilution method
Staphylococcus aureus [12] = experiment: Antibacterial activity against methicillin resistant Staphylococcus aureus MRSA090 at 100 ug/ml after 24 hrs by agar well diffusion method; settings: MRSA090, 24 h, read-out: DIZ
Escherichia coli [13] = experiment: Antibacterial activity against Escherichia coli incubated for overnight by microdilution method
Escherichia coli [14] = experiment: Antibacterial activity against Escherichia coli at 50 ug/ml after 24 hrs by agar well diffusion method; settings: read-out: DIZ
Staphylococcus aureus [15] = experiment: Antibacterial activity against Staphylococcus aureus at 75 ug/ml after 24 hrs by agar well diffusion method; settings: read-out: DIZ
Staphylococcus aureus [16] = experiment: Antibacterial activity against Staphylococcus aureus incubated for overnight by microdilution method
Klebsiella pneumoniae [17] = experiment: Antibacterial activity against Klebsiella pneumoniae at 50 ug/ml after 24 hrs by agar well diffusion method; settings: read-out: DIZ
Staphylococcus aureus [18] = experiment: Antibacterial activity against Staphylococcus aureus at 50 ug/ml after 24 hrs by agar well diffusion method; settings: read-out: DIZ
Klebsiella pneumoniae [19] = experiment: Antibacterial activity against Klebsiella pneumoniae at 25 ug/ml after 24 hrs by agar well diffusion method; settings: read-out: DIZ
Staphylococcus aureus [20] = experiment: Antibacterial activity against methicillin resistant Staphylococcus aureus MRSA090 at 25 ug/ml after 24 hrs by agar well diffusion method; settings: MRSA090, 24 h, read-out: DIZ
Bacillus subtilis [21] = experiment: Antibacterial activity against Bacillus subtilis at 50 ug/ml after 24 hrs by agar well diffusion method; settings: read-out: DIZ
Staphylococcus aureus [22] = experiment: Antibacterial activity against methicillin resistant Staphylococcus aureus MRSA090 at 50 ug/ml after 24 hrs by agar well diffusion method; settings: MRSA090, 24 h, read-out: DIZ
Escherichia coli [23] = experiment: Antibacterial activity against Escherichia coli at 100 ug/ml after 24 hrs by agar well diffusion method; settings: read-out: DIZ
Staphylococcus aureus [24] = experiment: Antibacterial activity against methicillin resistant Staphylococcus aureus MRSA090 at 75 ug/ml after 24 hrs by agar well diffusion method; settings: MRSA090, 24 h, read-out: DIZ
Staphylococcus aureus [25] = experiment: Antibacterial activity against methicillin resistant Staphylococcus aureus MRSA090 incubated for overnight by microdilution method
Aspergillus niger [26] = experiment: Antifungal activity against Aspergillus niger at 75 ug/ml after 48 hrs by agar well diffusion method; settings: for zone of inhibition at 75 µg/mL: read-out: DIZ
Fusarium oxysporum [27] = experiment: Antifungal activity against Fusarium oxysporum at 100 ug/ml after 48 hrs by agar well diffusion method; settings: read-out: DIZ
Fusarium verticillioides [28] = experiment: Antifungal activity against Fusarium moniliforme at 25 ug/ml after 48 hrs by agar well diffusion method
Fusarium oxysporum [29] = experiment: Antifungal activity against Fusarium oxysporum at 50 ug/ml after 48 hrs by agar well diffusion method; settings: for zone of inhibition at 50 µg/mL: read-out: DIZ
Fusarium oxysporum [30] = experiment: Antifungal activity against Fusarium oxysporum at 25 ug/ml after 48 hrs by agar well diffusion method; settings: for zone of inhibition at 25 µg/mL: read-out: DIZ
Aspergillus niger [31] = experiment: Antifungal activity against Aspergillus niger at 50 ug/ml after 48 hrs by agar well diffusion method; settings: for zone of inhibition at 50 µg/mL: read-out: DIZ
Fusarium verticillioides [32] = experiment: Antifungal activity against Fusarium moniliforme at 75 ug/ml after 48 hrs by agar well diffusion method; settings: for zone of inhibition at 75 µg/mL: read-out: DIZ
Aspergillus niger [33] = experiment: Antifungal activity against Aspergillus niger at 100 ug/ml after 48 hrs by agar well diffusion method; settings: read-out: DIZ
Fusarium verticillioides [34] = experiment: Antifungal activity against Fusarium moniliforme at 50 ug/ml after 48 hrs by agar well diffusion method
Fusarium oxysporum [35] = experiment: Antifungal activity against Fusarium oxysporum at 75 ug/ml after 48 hrs by agar well diffusion method; settings: for zone of inhibition at 75 µg/mL: read-out: DIZ
Fusarium verticillioides [36] = experiment: Antifungal activity against Fusarium moniliforme at 100 ug/ml after 48 hrs by agar well diffusion method; settings: for zone of inhibition at 100 µg/mL: read-out: DIZ
Aspergillus niger [37] = experiment: Antifungal activity against Aspergillus niger at 25 ug/ml after 48 hrs by agar well diffusion method; settings: for zone of inhibition at 25 µg/mL: read-out: DIZ
Aspergillus niger [38] = experiment: Antifungal activity against Aspergillus niger after 48 to 72 hrs by microdilution method
Fusarium oxysporum [39] = experiment: Antifungal activity against Fusarium oxysporum after 48 to 72 hrs by microdilution method
Fusarium verticillioides [40] = experiment: Antifungal activity against Fusarium moniliforme after 48 to 72 hrs by microdilution method

Row | Compound | zone of inhibition at 75 µg/mL (Bacillus subtilis [1]) | zone of inhibition at 100 µg/mL (Klebsiella pneumoniae [2]) | zone of inhibition at 75 µg/mL (Klebsiella pneumoniae [3]) | zone of inhibition at 100 µg/mL (Bacillus subtilis [4]) | zone of inhibition at 100 µg/mL (Staphylococcus aureus [5]) | zone of inhibition at 25 µg/mL (Bacillus subtilis [6]) | zone of inhibition at 75 µg/mL (Escherichia coli [7]) | zone of inhibition at 25 µg/mL (Escherichia coli [8]) | MIC (Klebsiella pneumoniae [9]) | zone of inhibition at 25 µg/mL (Staphylococcus aureus [10]) | MIC (Bacillus subtilis [11]) | zone of inhibition at 100 µg/mL (Staphylococcus aureus [12]) | MIC (Escherichia coli [13]) | zone of inhibition at 50 µg/mL (Escherichia coli [14]) | zone of inhibition at 75 µg/mL (Staphylococcus aureus [15]) | MIC (Staphylococcus aureus [16]) | zone of inhibition at 25 µg/mL (Staphylococcus aureus [20]) | zone of inhibition at 50 µg/mL (Staphylococcus aureus [22]) | zone of inhibition at 75 µg/mL (Staphylococcus aureus [24]) | MIC (Staphylococcus aureus [25]) | other results
1 | O=C(N[C@H](CO)[C@H](O)c1ccc([N+](=O)[O-])cc1)C(Cl)Cl [CHLORAMPHENICOL] | 31 mm | 36 mm | 33 mm | 34 mm | 37 mm | 21 mm | 32 mm | 23 mm | 28 µg/mL (≈ 86.7 µM) | 24 mm | 27 µg/mL (≈ 83.6 µM) | 31 mm | 25 µg/mL (≈ 77.4 µM) | 27 mm | 34 mm | 27 µg/mL (≈ 83.6 µM) | 19 mm | 22 mm | 27 mm | 25 µg/mL (≈ 77.4 µM) | zone of inhibition at 50 µg/mL (Klebsiella pneumoniae [17]): 29 mm; zone of inhibition at 50 µg/mL (Staphylococcus aureus [18]): 28 mm; zone of inhibition at 25 µg/mL (Klebsiella pneumoniae [19]): 24 mm; zone of inhibition at 50 µg/mL (Bacillus subtilis [21]): 25 mm; zone of inhibition at 100 µg/mL (Escherichia coli [23]): 38 mm
2 | COc1ccc(/C=N/Nc2nc3cccc(C)c3s2)c(OC)c1 | 25 mm | 15 mm | 12 mm | 29 mm | 28 mm | 13 mm | 24 mm | 13 mm | 22 µg/mL (≈ 67.2 µM) | 10 mm | 24 µg/mL (≈ 73.3 µM) | 27 mm | 25 µg/mL (≈ 76.4 µM) | 18 mm | 20 mm | 26 µg/mL (≈ 79.4 µM) | 15 mm | 18 mm | 22 mm | 22 µg/mL (≈ 67.2 µM) | diameter of the inhibition zone (DIZ) (Aspergillus niger [26]): inactive; zone of inhibition at 100 µg/mL (Fusarium oxysporum [27]): 17 mm; diameter of the inhibition zone (DIZ) (Fusarium verticillioides [28]): inactive; zone of inhibition at 50 µg/mL (Fusarium oxysporum [29]): 12 mm; zone of inhibition at 25 µg/mL (Fusarium oxysporum [30]): 7 mm; diameter of the inhibition zone (DIZ) (Aspergillus niger [31]): inactive; diameter of the inhibition zone (DIZ) (Fusarium verticillioides [32]): inactive; zone of inhibition at 100 µg/mL (Aspergillus niger [33]): 4 mm; diameter of the inhibition zone (DIZ) (Fusarium verticillioides [34]): inactive; zone of inhibition at 75 µg/mL (Fusarium oxysporum [35]): 14 mm; zone of inhibition at 50 µg/mL (Klebsiella pneumoniae [17]): 9 mm; zone of inhibition at 50 µg/mL (Staphylococcus aureus [18]): 15 mm; diameter of the inhibition zone (DIZ) (Fusarium verticillioides [36]): inactive; zone of inhibition at 25 µg/mL (Klebsiella pneumoniae [19]): 4 mm; zone of inhibition at 50 µg/mL (Bacillus subtilis [21]): 19 mm; zone of inhibition at 100 µg/mL (Escherichia coli [23]): 23 mm; diameter of the inhibition zone (DIZ) (Aspergillus niger [37]): inactive
3 | CC(=O)N1CCN(c2ccc(OCC3COC(Cn4ccnc4)(c4ccc(Cl)cc4Cl)O3)cc2)CC1 (stereo not given) [KETOCONAZOLE] |  |  |  |  |  |  |  |  |  |  |  |  |  |  |  |  |  |  |  |  | zone of inhibition at 75 µg/mL (Aspergillus niger [26]): 34 mm; zone of inhibition at 100 µg/mL (Fusarium oxysporum [27]): 38 mm; zone of inhibition at 25 µg/mL (Fusarium verticillioides [28]; read-out: DIZ): 21 mm; MIC (Aspergillus niger [38]): 28 µg/mL (≈ 52.7 µM); zone of inhibition at 50 µg/mL (Fusarium oxysporum [29]): 22 mm; MIC (Fusarium oxysporum [39]): 24 µg/mL (≈ 45.2 µM); zone of inhibition at 25 µg/mL (Fusarium oxysporum [30]): 23 mm; zone of inhibition at 50 µg/mL (Aspergillus niger [31]): 28 mm; zone of inhibition at 75 µg/mL (Fusarium verticillioides [32]): 31 mm; zone of inhibition at 100 µg/mL (Aspergillus niger [33]): 37 mm; zone of inhibition at 50 µg/mL (Fusarium verticillioides [34]; read-out: DIZ): 25 mm; zone of inhibition at 75 µg/mL (Fusarium oxysporum [35]): 32 mm; zone of inhibition at 100 µg/mL (Fusarium verticillioides [36]): 34 mm; zone of inhibition at 25 µg/mL (Aspergillus niger [37]): 24 mm; MIC (Fusarium verticillioides [40]): 27 µg/mL (≈ 50.8 µM)
4 | Cc1cccc2nc(N/N=C/c3ccc(O)cc3O)sc12 | 24 mm | 25 mm | 21 mm | 28 mm | 26 mm | 12 mm | 17 mm | 6 mm | 24 µg/mL (≈ 80.2 µM) | 14 mm | 29 µg/mL (≈ 96.9 µM) | 24 mm | 33 µg/mL (≈ 110 µM) | 12 mm | 23 mm | 24 µg/mL (≈ 80.2 µM) | 12 mm | 16 mm | 20 mm | 20 µg/mL (≈ 66.8 µM) | zone of inhibition at 75 µg/mL (Aspergillus niger [26]): 17 mm; zone of inhibition at 100 µg/mL (Fusarium oxysporum [27]): 8 mm; diameter of the inhibition zone (DIZ) (Fusarium verticillioides [28]): inactive; diameter of the inhibition zone (DIZ) (Fusarium oxysporum [29]): inactive; MIC (Fusarium oxysporum [39]): 27 µg/mL (≈ 90.2 µM); diameter of the inhibition zone (DIZ) (Fusarium oxysporum [30]): inactive; zone of inhibition at 50 µg/mL (Aspergillus niger [31]): 14 mm; zone of inhibition at 75 µg/mL (Fusarium verticillioides [32]): 10 mm; zone of inhibition at 100 µg/mL (Aspergillus niger [33]): 21 mm; diameter of the inhibition zone (DIZ) (Fusarium verticillioides [34]): inactive; diameter of the inhibition zone (DIZ) (Fusarium oxysporum [35]): inactive; zone of inhibition at 50 µg/mL (Klebsiella pneumoniae [17]): 16 mm; zone of inhibition at 50 µg/mL (Staphylococcus aureus [18]): 18 mm; zone of inhibition at 100 µg/mL (Fusarium verticillioides [36]): 14 mm; zone of inhibition at 25 µg/mL (Klebsiella pneumoniae [19]): 12 mm; zone of inhibition at 50 µg/mL (Bacillus subtilis [21]): 18 mm; zone of inhibition at 100 µg/mL (Escherichia coli [23]): 20 mm; zone of inhibition at 25 µg/mL (Aspergillus niger [37]): 8 mm; MIC (Fusarium verticillioides [40]): 25 µg/mL (≈ 83.5 µM)
5 | CO[C@H]1/C=C/O[C@@]2(C)Oc3c(C)c(O)c4c(O)c(c(/C=N/N5CCN(C)CC5)c(O)c4c3C2=O)NC(=O)/C(C)=C\C=C\[C@H](C)[C@H](O)[C@@H](C)[C@@H](O)[C@@H](C)[C@H](OC(C)=O)[C@@H]1C [RIFAMPIN] |  |  |  |  |  |  |  |  | 22 µg/mL (≈ 26.7 µM) |  | 21 µg/mL (≈ 25.5 µM) | 33 mm | 22 µg/mL (≈ 26.7 µM) |  |  | 21 µg/mL (≈ 25.5 µM) | 23 mm | 27 mm | 30 mm | 22 µg/mL (≈ 26.7 µM) | 

— ChEMBL document CHEMBL4020788, “Synthesis, SAR and molecular docking studies of benzo[d]thiazole-hydrazones as potential antibacterial and antifungal agents” (2017)
